Experiments:
[1] = test system: human acute leukemia cell NB4 (expressing KRAS-A18D mutant kinase); assay: Effect on proliferation of cancer cells, Cell Titer-Glo, 72 hours; format: cell-based; conditions: NB-4
Protocol: (§1) The compounds of the present invention were tested for their effect on growth of cancer cells (Table 2), to further evaluate the compounds herein for their inhibitory effect on proliferation of cancer cells and their selectivity in inhibiting proliferation of cancer cells.
(§2) The above-mentioned BaF3-FL-BRAF-V600E mutant cell line was constructed by the method as follows. The sequence of human full-length BRAF-V600E mutant kinase region was amplified by PCR, inserted into a MSCV-Puro vector (purchased from Clontech), and stably transfected into mouse BaF3 cells by the retroviral method, and the growth factor IL-3 was removed. Eventually, a cell line dependent on a full-length BRAF-V600E protein having various mutation transferred was obtained.
(§3) In the example, solutions of the test compound in DMSO at different concentrations (0.000508 μM, 0.00152 μM, 0.00457 μM, 0.0137 μM, 0.0411 μM, 0.123 μM, 0.370 μM, 1.11 μM, 3.33 μM, 10 μM) was added to the above cells respectively. The cells were incubated for 72 hours. The number of viable cells was detected with a Cell Titer-Glo (Promega, USA) Cell Viability Assay Kit by quantifying the ATP in viable cells. The values of GI50 (unit) of the compounds of the present invention against each of the test cells were determined.

[2] = test system: human acute leukemia cell OCI-AML-3 (expressing NRAS-Q61L mutant kinase); assay: as above; format: cell-based; conditions: OCI-AML-3 cells
Protocol: as §1, §2, §3

[3] = test system: Calu-6 transplanted tumor nude mice; assay: Toxicity in Calu-6 cell transplanted tumor mouse model; conditions: Calu-6 cell transplanted tumor model, oral daily; Compound 16 50, 100, 200 mg/kg; Comparative Compound 1 100 mg/kg

SMILES	GI50 [1] [nM]	GI50 [2] [nM]	toxicity [3]
Cc1ccc(NC(=O)c2cccc(C(F)(F)F)c2)cc1-n1cc(-c2cncc(N3CCOCC3)c2)cn1 [Example 16, N-(4-methyl-3-(4-(5-morpholinopyrid-3-yl)-1H-pyrazol-1-yl)phenyl)-3-(trifluoromethyl)benzamide]	27	21	did not exhibit any toxicity
Cc1ccc(NC(=O)c2cccc(C(F)(F)F)c2)cc1-n1cc(-c2cccnc2)cn1 [compound 1, 3-trifluoromethyl-N-(4-methyl-3-(4-(pyrid-3-yl)-1H-pyrazol-1-yl)phenyl)benzamide, reference compound]	83	20	very strong toxicity as all mice died on Day 8
